Data as given in ChEMBL document CHEMBL3758169, “4-Aminoindazolyl-dihydrofuro[3,4-d]pyrimidines as non-covalent inhibitors of mutant epidermal growth factor receptor tyrosine kinase” (Bioorg Med Chem Lett, 2016).

How the values were obtained:
[1] = target: Tyrosine-protein kinase JAK2 (Homo sapiens) (UniProt O60674); assay: Inhibition of JAK2 (unknown origin) at 100 nM
[2] = target: Mitogen-activated protein kinase 1 (Homo sapiens) (UniProt P28482); assay: Inhibition of ERK2 (unknown origin) at 100 nM
[3] = target: Tyrosine-protein kinase SYK (Homo sapiens) (UniProt P43405); assay: Inhibition of SYK (unknown origin) at 100 nM
[4] = target: Rho-associated protein kinase 1 (Homo sapiens) (UniProt Q13464); assay: Inhibition of ROCK1 (unknown origin) at 100 nM
[5] = target: Tyrosine-protein kinase BTK (Homo sapiens) (UniProt Q06187); assay: Inhibition of BTK (unknown origin) at 100 nM
[6] = target: Inhibitor of nuclear factor kappa-B kinase subunit beta (Homo sapiens) (UniProt O14920); assay: Inhibition of IKKbeta (unknown origin) at 100 nM
[7] = target: Mitogen-activated protein kinase 8 (Homo sapiens) (UniProt P45983); assay: Inhibition of JNK1 alpha1 (unknown origin) at 100 nM
[8] = target: Serine/threonine-protein kinase TBK1 (Homo sapiens) (UniProt Q9UHD2); assay: Inhibition of TBK1 (unknown origin) at 100 nM
[9] = target: Macrophage colony-stimulating factor 1 receptor (Homo sapiens) (UniProt P07333); assay: Inhibition of CSF1R (unknown origin) at 100 nM
[10] = target: MAP kinase-activated protein kinase 2 (Homo sapiens) (UniProt P49137); assay: Inhibition of MAPKAPK2 (unknown origin) at 100 nM
[11] = target: Inhibitor of nuclear factor kappa-B kinase subunit alpha (Homo sapiens) (UniProt O15111); assay: Inhibition of IKKalpha (unknown origin) at 100 nM
[12] = target: Mast/stem cell growth factor receptor Kit (Homo sapiens) (UniProt P10721); assay: Inhibition of KIT (unknown origin) at 100 nM
[13] = target: Insulin-like growth factor 1 receptor (Homo sapiens) (UniProt P08069); assay: Inhibition of IGF1R (unknown origin) at 100 nM
[14] = target: T1, Epidermal growth factor receptor (Homo sapiens, UniProt P00533); assay: Inhibition of EGFR (unknown origin) at 100 nM
[15] = target: T1, Epidermal growth factor receptor; assay: Inhibition of EGFR deletion (746 to 750 residues) mutant (unknown origin); format: protein assay
[16] = target: Ephrin type-A receptor 2 (Homo sapiens) (UniProt P29317); assay: Inhibition of EPHA2 (unknown origin) at 100 nM
[17] = target: Serine/threonine-protein kinase Chk1 (Homo sapiens) (UniProt O14757); assay: Inhibition of CHK1 (unknown origin) at 100 nM
[18] = target: RAC-alpha serine/threonine-protein kinase (Homo sapiens) (UniProt P31749); assay: Inhibition of AKT1 (unknown origin) at 100 nM
[19] = target: SRSF protein kinase 2 (Homo sapiens) (UniProt P78362); assay: Inhibition of SRPK2 (unknown origin) at 100 nM
Homo sapiens = organism: Homo sapiens; assay: Inhibition of PKCbeta1 (unknown origin) at 100 nM
[20] = target: Casein kinase I isoform alpha (Homo sapiens) (UniProt P48729); assay: Inhibition of CK1alpha1 (unknown origin) at 100 nM
[21] = target: Tyrosine-protein kinase ABL1 (Homo sapiens) (UniProt P00519); assay: Inhibition of ABL (unknown origin) at 100 nM
[22] = Efflux ratio of permeability from basolateral to apical side over apical to basolateral side in MDCK cells; format: ADME, cell-based, Canis lupus familiaris; conditions: dog
[23] = target: Tyrosine-protein kinase ITK/TSK (Homo sapiens) (UniProt Q08881); assay: Inhibition of ITK (unknown origin) at 100 nM
[24] = test system: Epidermal growth factor receptor (Homo sapiens), P00533 [L858R]; assay: Inhibition of EGFR L858R mutant (unknown origin) at 100 nM; format: protein assay
[25] = target: Mitogen-activated protein kinase 14 (Homo sapiens) (UniProt Q16539); assay: Inhibition of p38alpha (unknown origin) by direct binding assay at 100 nM
[26] = target: Proto-oncogene tyrosine-protein kinase Src (Homo sapiens) (UniProt P12931); assay: Inhibition of SRC (unknown origin) at 100 nM
[27] = target: Serine/threonine-protein kinase PAK 4 (Homo sapiens) (UniProt O96013); assay: Inhibition of PAK4 (unknown origin) at 100 nM
[28] = target: Dual specificity mitogen-activated protein kinase kinase 1 (Homo sapiens) (UniProt Q02750); assay: Inhibition of MEK1 (unknown origin) at 100 nM
[29] = target: CDK2/Cyclin A2 (Homo sapiens) (UniProt P24941+P20248); assay: Inhibition of CDK2/cyclinA (unknown origin) at 100 nM; format: protein-complex assay
[30] = target: Insulin receptor (Homo sapiens) (UniProt P06213); assay: Inhibition of INSR (unknown origin) at 100 nM
[31] = target: Ribosomal protein S6 kinase beta-1 (Homo sapiens) (UniProt P23443); assay: Inhibition of p70S6K(unknown origin) at 100 nM
[32] = target: Tyrosine-protein kinase JAK2 (Homo sapiens) (UniProt O60674); assay: Inhibition of JAK2 JH1JH2 domain (unknown origin) at 100 nM
[33] = target: Receptor-type tyrosine-protein kinase FLT3 (Homo sapiens) (UniProt P36888); assay: Inhibition of FLT3 (unknown origin) at 100 nM
[34] = target: Glycogen synthase kinase-3 beta (Homo sapiens) (UniProt P49841); assay: Inhibition of GSK3beta (unknown origin) at 100 nM
[35] = test system: RAF proto-oncogene serine/threonine-protein kinase (Homo sapiens), P04049 [Y340D,Y341D]; assay: Inhibition of RAF1 Y340D/Y341D double mutant (unknown origin) at 100 nM
[36] = target: Serine/threonine-protein kinase D1 (Homo sapiens) (UniProt Q15139); assay: Inhibition of PKD1 (unknown origin) at 100 nM
[37] = target: CDK8/Cyclin C (Homo sapiens) (UniProt P49336+P24863); assay: Inhibition of CDK8/cyclinC (unknown origin) at 100 nM; format: protein-complex assay
[38] = target: Mitogen-activated protein kinase kinase kinase 14 (Homo sapiens) (UniProt Q99558); assay: Inhibition of NIK (unknown origin) at 100 nM
[39] = target: Protein-tyrosine kinase 2-beta (Homo sapiens) (UniProt Q14289); assay: Inhibition of FAK2 (unknown origin) at 100 nM
[40] = target: Tyrosine-protein kinase Lyn (Homo sapiens) (UniProt P07948); assay: Inhibition of LYN (unknown origin) at 100 nM
[41] = target: Tyrosine-protein kinase ZAP-70 (Homo sapiens) (UniProt P43403); assay: Inhibition of ZAP70 (unknown origin) at 100 nM
[42] = target: Aurora kinase B (Homo sapiens) (UniProt Q96GD4); assay: Inhibition of Aurora B (unknown origin) at 100 nM
[43] = Plasma clearance in iv dosed rat; format: ADME, organism-based

Tyrosine-protein kinase JAK2 (Homo sapiens), sequence (O60674 whole entry, the tested form may be a part): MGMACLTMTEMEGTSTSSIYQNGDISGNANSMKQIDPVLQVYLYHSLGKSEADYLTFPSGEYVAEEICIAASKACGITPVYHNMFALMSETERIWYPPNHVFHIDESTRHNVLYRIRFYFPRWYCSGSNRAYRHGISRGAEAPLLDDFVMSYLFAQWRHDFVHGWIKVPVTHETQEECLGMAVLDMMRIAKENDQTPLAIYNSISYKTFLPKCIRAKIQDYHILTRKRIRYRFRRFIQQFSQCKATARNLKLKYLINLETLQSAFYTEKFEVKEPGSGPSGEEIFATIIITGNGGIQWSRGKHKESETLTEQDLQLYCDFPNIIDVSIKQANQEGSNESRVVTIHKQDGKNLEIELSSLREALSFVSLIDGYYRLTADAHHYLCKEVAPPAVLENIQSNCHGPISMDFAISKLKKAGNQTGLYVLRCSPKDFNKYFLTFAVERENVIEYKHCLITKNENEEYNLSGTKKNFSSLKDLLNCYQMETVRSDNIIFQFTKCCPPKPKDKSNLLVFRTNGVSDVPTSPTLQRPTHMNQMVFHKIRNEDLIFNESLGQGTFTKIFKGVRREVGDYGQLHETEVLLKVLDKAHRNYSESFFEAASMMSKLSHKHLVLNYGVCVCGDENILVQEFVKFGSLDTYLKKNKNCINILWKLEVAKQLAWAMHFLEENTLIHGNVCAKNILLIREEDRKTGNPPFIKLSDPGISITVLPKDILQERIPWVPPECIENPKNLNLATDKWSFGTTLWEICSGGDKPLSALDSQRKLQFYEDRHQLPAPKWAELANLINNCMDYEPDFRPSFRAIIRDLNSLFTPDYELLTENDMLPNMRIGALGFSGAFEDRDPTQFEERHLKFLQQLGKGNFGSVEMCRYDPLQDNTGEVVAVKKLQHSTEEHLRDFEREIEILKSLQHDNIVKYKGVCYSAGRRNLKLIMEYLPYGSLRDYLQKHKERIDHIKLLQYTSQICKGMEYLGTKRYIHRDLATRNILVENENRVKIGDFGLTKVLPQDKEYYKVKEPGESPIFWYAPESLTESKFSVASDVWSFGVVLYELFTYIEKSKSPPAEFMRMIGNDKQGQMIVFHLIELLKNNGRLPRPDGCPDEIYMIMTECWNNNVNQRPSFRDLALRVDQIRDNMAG
Insulin-like growth factor 1 receptor (Homo sapiens), sequence (P08069 31-736 limits assumed): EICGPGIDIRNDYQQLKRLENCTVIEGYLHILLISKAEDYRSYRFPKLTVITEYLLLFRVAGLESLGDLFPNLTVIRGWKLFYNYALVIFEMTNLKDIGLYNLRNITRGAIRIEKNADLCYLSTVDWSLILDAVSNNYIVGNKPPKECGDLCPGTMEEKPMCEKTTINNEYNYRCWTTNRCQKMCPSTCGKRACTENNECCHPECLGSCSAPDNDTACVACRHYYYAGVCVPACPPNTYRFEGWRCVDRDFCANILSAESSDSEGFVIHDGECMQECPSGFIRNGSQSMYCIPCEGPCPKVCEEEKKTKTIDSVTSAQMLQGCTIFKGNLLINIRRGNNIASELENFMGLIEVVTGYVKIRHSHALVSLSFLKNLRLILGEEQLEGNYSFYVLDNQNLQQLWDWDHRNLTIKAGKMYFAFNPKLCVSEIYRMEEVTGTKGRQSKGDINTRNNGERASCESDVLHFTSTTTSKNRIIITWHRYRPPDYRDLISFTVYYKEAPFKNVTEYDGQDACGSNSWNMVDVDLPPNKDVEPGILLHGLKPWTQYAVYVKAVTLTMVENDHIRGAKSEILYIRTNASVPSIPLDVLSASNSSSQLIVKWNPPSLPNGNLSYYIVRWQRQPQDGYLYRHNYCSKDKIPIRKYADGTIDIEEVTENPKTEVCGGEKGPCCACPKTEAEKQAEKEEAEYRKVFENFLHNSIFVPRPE
Insulin-like growth factor 1 receptor (Homo sapiens), sequence (P08069 741-1367 limits assumed): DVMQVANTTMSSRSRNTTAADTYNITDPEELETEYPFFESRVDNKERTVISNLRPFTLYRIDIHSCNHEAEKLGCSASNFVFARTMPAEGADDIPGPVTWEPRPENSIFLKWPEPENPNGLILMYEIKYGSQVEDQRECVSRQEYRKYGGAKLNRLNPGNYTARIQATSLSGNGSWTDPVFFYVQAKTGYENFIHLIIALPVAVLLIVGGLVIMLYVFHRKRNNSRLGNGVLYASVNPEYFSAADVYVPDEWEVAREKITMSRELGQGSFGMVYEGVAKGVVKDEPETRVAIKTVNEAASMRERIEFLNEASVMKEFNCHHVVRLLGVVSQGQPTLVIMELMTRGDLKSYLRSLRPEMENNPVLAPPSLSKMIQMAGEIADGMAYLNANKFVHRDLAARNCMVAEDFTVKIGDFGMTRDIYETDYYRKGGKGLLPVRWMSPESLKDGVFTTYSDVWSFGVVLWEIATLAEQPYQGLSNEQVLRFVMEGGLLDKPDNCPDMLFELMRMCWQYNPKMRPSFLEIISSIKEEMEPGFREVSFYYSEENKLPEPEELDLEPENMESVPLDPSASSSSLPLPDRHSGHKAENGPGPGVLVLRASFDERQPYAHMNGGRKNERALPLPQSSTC
Serine/threonine-protein kinase D1 (Homo sapiens), sequence (Q15139 whole entry): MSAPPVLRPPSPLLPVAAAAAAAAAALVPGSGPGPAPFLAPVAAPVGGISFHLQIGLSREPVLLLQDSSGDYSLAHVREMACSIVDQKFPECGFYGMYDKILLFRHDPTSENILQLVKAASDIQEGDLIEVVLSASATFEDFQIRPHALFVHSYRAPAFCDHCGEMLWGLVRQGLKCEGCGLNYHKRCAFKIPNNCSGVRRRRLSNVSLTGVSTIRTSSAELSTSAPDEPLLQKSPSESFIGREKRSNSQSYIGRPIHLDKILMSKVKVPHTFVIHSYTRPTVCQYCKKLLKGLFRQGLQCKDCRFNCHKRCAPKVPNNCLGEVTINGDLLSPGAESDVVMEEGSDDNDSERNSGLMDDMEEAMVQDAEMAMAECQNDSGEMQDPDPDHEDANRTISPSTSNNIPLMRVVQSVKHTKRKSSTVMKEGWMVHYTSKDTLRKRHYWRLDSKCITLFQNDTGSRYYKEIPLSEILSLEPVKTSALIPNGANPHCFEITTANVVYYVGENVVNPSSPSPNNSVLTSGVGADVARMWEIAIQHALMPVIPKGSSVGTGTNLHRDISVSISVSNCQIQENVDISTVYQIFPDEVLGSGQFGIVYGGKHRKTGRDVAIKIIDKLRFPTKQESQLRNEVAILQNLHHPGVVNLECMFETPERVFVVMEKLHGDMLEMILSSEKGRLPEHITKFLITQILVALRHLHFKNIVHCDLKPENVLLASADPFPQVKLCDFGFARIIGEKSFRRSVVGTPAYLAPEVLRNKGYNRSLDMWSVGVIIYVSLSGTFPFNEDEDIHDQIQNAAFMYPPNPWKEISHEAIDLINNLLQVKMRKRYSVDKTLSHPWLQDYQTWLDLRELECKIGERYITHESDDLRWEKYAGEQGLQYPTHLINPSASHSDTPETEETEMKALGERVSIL
Mitogen-activated protein kinase kinase kinase 14 (Homo sapiens), sequence (Q99558 whole entry, looked up): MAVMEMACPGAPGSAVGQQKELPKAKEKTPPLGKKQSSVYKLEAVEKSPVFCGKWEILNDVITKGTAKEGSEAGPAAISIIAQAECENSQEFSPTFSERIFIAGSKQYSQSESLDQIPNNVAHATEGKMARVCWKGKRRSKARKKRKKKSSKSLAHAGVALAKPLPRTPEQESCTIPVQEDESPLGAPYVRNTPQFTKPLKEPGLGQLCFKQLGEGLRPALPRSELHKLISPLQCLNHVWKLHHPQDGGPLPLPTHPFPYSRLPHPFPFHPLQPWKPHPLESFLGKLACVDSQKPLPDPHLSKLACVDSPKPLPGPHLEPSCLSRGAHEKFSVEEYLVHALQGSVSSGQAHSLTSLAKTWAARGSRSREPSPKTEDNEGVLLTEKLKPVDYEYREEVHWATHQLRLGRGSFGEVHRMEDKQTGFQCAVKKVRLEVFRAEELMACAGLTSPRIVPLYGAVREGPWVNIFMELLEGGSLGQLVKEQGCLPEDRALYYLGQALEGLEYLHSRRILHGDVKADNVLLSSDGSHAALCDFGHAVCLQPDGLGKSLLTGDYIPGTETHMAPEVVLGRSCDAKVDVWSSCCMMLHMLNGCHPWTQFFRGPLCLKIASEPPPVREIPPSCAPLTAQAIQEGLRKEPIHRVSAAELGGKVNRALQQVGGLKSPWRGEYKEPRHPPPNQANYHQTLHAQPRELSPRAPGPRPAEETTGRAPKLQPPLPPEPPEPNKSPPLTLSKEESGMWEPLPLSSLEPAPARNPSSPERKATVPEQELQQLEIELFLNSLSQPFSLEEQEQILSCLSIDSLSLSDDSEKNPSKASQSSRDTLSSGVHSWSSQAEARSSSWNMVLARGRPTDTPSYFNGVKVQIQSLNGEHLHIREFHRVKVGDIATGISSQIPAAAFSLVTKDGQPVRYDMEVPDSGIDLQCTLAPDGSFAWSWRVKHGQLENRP
Tyrosine-protein kinase Lyn (Homo sapiens), sequence (P07948 2-512 limits assumed): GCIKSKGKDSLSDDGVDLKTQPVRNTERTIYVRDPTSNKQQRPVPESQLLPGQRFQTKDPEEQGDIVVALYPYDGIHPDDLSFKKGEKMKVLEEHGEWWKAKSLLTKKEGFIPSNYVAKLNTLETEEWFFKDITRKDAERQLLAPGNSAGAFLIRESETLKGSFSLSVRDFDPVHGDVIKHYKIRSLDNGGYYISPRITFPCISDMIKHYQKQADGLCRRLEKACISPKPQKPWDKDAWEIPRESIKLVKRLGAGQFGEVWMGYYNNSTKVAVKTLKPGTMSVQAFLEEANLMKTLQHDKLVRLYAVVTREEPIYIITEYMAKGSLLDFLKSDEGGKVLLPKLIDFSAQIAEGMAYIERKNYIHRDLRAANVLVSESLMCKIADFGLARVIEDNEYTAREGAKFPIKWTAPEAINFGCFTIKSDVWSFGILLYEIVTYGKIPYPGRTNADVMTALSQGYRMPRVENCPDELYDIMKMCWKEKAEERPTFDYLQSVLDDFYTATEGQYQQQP

CC1(C)OCc2c(Nc3n[nH]c4ccccc34)nc(-c3cn[nH]c3)nc21
inhibition [1]: 9.8%
inhibition [2]: 1.2%
inhibition [3]: 0.4%
inhibition [4]: 0.8%
inhibition [5]: 19.8%
inhibition [6]: 4.8%
inhibition [7]: -9.9%
inhibition [8]: 7.9%
inhibition [9]: 17.5%
inhibition [10]: 1.9%
inhibition [11]: -5.3%
inhibition [12]: 13.3%
inhibition [13]: 4.4%
inhibition [14]: 97.4%
Ki [15]: 200 pM
inhibition [16]: 12.2%
inhibition [17]: 2.7%
inhibition [18]: 3.5%
inhibition [19]: -8.1%
inhibition (Homo sapiens): 35.1%
inhibition [20]: 6.9%
inhibition [21]: 54.1%
efflux ratio [22]: 2.4
inhibition [23]: 4%
inhibition [24]: 97.7%
inhibition [25]: 20.6%
inhibition [26]: 47.3%
inhibition [27]: 0.2%
inhibition [28]: 2%
inhibition [29]: 1.9%
inhibition [30]: 5.4%
inhibition [31]: 4.3%
inhibition [32]: 1.9%
inhibition [33]: 16.5%
inhibition [34]: 41.9%
inhibition [35]: 16.6%
inhibition [36]: 2.1%
inhibition [37]: 7.9%
inhibition [38]: 18%
inhibition [39]: 9.7%
inhibition [40]: 89.9%
inhibition [41]: 9.2%
inhibition [42]: -2.5%
clearance [43]: 86 mL/min/kg

CC1(C)OCc2c(Nc3n[nH]c4c(Cl)cccc34)nc(-c3cn[nH]c3)nc21
inhibition [1]: 8.8%
inhibition [2]: -3.5%
inhibition [3]: 7%
inhibition [4]: 2.3%
inhibition [5]: 17%
inhibition [6]: 7%
inhibition [7]: 4.1%
inhibition [8]: 9.4%
inhibition [9]: 19.1%
inhibition [10]: 2.1%
inhibition [11]: -1.8%
inhibition [12]: 4.8%
inhibition [13]: 13.5%
inhibition [14]: 93.7%
Ki [15]: 400 pM
inhibition [16]: 11.8%
inhibition [17]: 5.3%
inhibition [18]: 11.1%
inhibition [19]: 12.6%
inhibition (Homo sapiens): 33%
inhibition [20]: -3.3%
inhibition [21]: 35.3%
efflux ratio [22]: 1.6
inhibition [23]: 2%
inhibition [24]: 90.5%
inhibition [25]: 22.4%
inhibition [26]: 66.5%
inhibition [27]: -3.1%
inhibition [28]: 4.3%
inhibition [29]: 5.3%
inhibition [30]: 2%
inhibition [31]: 10.4%
inhibition [32]: 14%
inhibition [33]: 67.3%
inhibition [34]: 61%
inhibition [35]: 25.3%
inhibition [36]: 8.4%
inhibition [37]: 11.7%
inhibition [38]: -0.3%
inhibition [39]: 9.1%
inhibition [40]: 94%
inhibition [41]: 3.5%
inhibition [42]: 16.4%
clearance [43]: 74 mL/min/kg
